In patent US20130296273A1, “TREATMENT OF BLOOD CANCER” (Threshold Pharmaceuticals, Inc., priority 2010, published 2013):
“Also recorded” adds a separate entry of the source.

What was measured:
[1] = test system: anti-apoptotic and pro-apoptotic Bcl-2 family proteins; assay: Immunoblotting of Bcl-2 family proteins, TH-302, bortezomib and combination; type: cell-based
Experimental: To further determine the mechanism of induction of apoptosis by this combination, the effect of TH-302, bortezomib and the combination on anti-apoptotic and pro-apoptotic Bcl-2 family proteins using immunoblotting was tested.

5T33vt cells = assay: Cell cycle analysis in 5T33vt cells; type: cell-based, murine; settings: hypoxia selective manner
[2] = test system: Karpas-707, LP-1, MMS1, and RPMI-8226 cells; assay: Cell cycle analysis in multiple myeloma cell lines under hypoxia; type: cell-based, human; settings: hypoxic conditions; Karpas-707, LP-1, MMS1, RPMI-8226 cells
[3] = test system: cyclin D1/2/3, CDK4/6, p21cip-1, p27kip-1, pRb, CDK2 in RPMI-8226, LP-1, MMS1 and Karpas-707 multiple myeloma cells; assay: Western blotting of cell cycle machinery; type: cell-based, human
LP-1 cells = assay: Apoptosis in LP-1 cells; type: cell-based, human
Experimental: (§1) TH-302 (5 μM) decreased the accumulation of HIF1α in hypoxic RPMI-8226 cells. VEGFa secretion was reduced by TH-302 in 5T33vt cells. *p<0.05, **p<0.01, ***p<0.001, compared to 20% O2 (n=3).
(§2) By employing a set of defined gas mixtures (0%, 1%, 1.25%, 1.5%, 2%, 3%, 20% O2) for drug treatment of the multiple myeloma cells, the oxygen concentration dependent activation of TH-302 was tested in RPMI-8226, LP-1, MMS1 and 5T33vt multiple myeloma cells. […] As the O2 concentration was reduced to 0%, the fraction of apoptotic cells increased to about 70-75%.

[4] = test system: human and murine multiple myeloma cells; assay: Flow cytometry analysis of apoptosis / toxicity in multiple myeloma cells; type: cell-based; settings: also RPMI-8226, 5T33vt, MMS1, Karpas-707 cells
Experimental: as §2

[5] = test system: BCL-2, BCL-xL, cleaved caspase-3, 8, 9 and PARP; assay: Western blotting of apoptosis proteins; type: cell-based
HIF1α in RPMI-8226 cells = assay: HIF1α accumulation/expression in hypoxic cells; type: cell-based, human
Experimental: as §1, §2

[6] = test system: VEGFa secretion in 5T33vt cells; assay: VEGFa secretion; type: cell-based, murine
Experimental: as §1, §2

[7] = test system: RPMI-8226, LP-1, MMS1 and 5T33vt multiple myeloma cells; assay: Oxygen concentration dependent activation of TH-302 (defined gas mixtures); type: cell-based, human and murine
Experimental: as §2

5T33MMvv mouse = 5T33MMvv mouse multiple myeloma model, prophylactic treatment for 3 weeks; type: in vivo; settings: for multiple myeloma cell apoptosis vs vehicle-treated mice: bone marrow
Experimental: 5T33MMvv mice were treated prophylactically with TH-302 for 3 weeks. From day 1, the following were observed. […] Therefore, the cancer cytotoxic effect of TH-302 was associated with the hypoxic nature of multiple myeloma cells in the bone marrow.

naive mice = assay: Toxicity in TH-302 treated naive mice; type: in vivo, mouse; settings: compared to vehicle-treated naive mice
AML = assay: Clinical administration of TH-302 in advanced leukemia, AML patients; type: in vivo
Experimental: (§3) Clinical investigations were conducted to determine the safety, tolerability and clinically relevant disease responses of TH-302 in patients with acute leukemias, advanced phase chronic myelogenous leukemia (CML), high risk myelodysplastic syndromes, advanced myelofibrosis or relapsed/refractory chronic lymphocytic leukemia (CLL). TH-302 was administered as a 30 to 60 minute intravenous infusion daily for 5 days followed by 2 weeks off therapy. As needed, the 5 days of dosing could be spread out over 8 days. Patients who successfully completed a 3-week treatment cycle without evidence of significant treatment-related toxicity or progressive disease were continued on treatment and could receive treatment for up to six cycles.
(§4) Twenty-one patients have been treated in the study at TH-302 daily doses ranging from 120 mg/m^2 to 460 mg/m^2. All subjects had either AML or ALL and had generally received multiple prior therapies for their disease prior to enrolling for the study.

ALL = assay: Clinical administration of TH-302 in advanced leukemia, ALL patients; type: in vivo; settings: one ALL patient
Experimental: as §3, §4

## CC(C)C[C@H](NC(=O)[C@H](Cc1ccccc1)NC(=O)c1cnccn1)B(O)O [bortezomib, reference compound]
[1]
  anti-apoptotic Mcl-1: accumulated
  expression of anti-apoptotic Bcl-2 and Bcl-xL: decreased
  pro-apoptotic BH-3 member Noxa and cleavage of BID: induced

## Cn1c(COP(=O)(NCCBr)NCCBr)cnc1[N+](=O)[O-] [TH-302]
5T33vt cells
  cell cycle arrest: induced Go/G1 cell cycle arrest
[2]
  cell cycle arrest: induced Go/G1 cell cycle arrest
[3]
  CDK2 expression: remained undisturbed
  cyclin D1/2/3, CDK4/6, p21, p27 and pRb expression: down-regulating
LP-1 cells; LP-1 cells under hypoxia, dose dependence
  apoptosis: triggered specific apoptosis in a dose-dependent manner
LP-1 cells; LP-1 cells, TH-302 5 μM
  apoptosis: induced apoptosis
[4]; hypoxic conditions, flow cytometry
  apoptosis: induced dose-dependent apoptosis
[4]; normoxic conditions, even at high concentrations
  toxicity in normoxic conditions: very low toxicity
[5]
  anti-apoptotic proteins BCL-2 and BCL-xL: down-regulation
  expression of cleaved proapoptotic protein caspase-3, 8, 9 and PARP: up-regulation
HIF1α in RPMI-8226 cells; hypoxic RPMI-8226 cells, TH-302 5 μM
  accumulation of HIF1α: decreased
HIF1α in RPMI-8226 cells; hypoxic condition, similar in 5T33vt, LP-1, Karpas-707 cells
  expression of HIF1α: reduced
[6]
  VEGFa secretion: reduced; also recorded: significantly decreased
[7]; O2 concentration reduced to 0%
  fraction of apoptotic cells: 70-75%
[7]; gas mixtures 0%, 1%, 1.25%, 1.5%, 2%, 3%, 20% O2
  threshold of activating TH-302: < 1.5 % O2
5T33MMvv mouse; 12.5 mg/kg
  microvessel density (MVD) in the bone marrow vs vehicle-treated mice: 19 % decrease
  paraprotein secretion vs vehicle-treated mice: 32 % decrease
  multiple myeloma cell apoptosis vs vehicle-treated mice: 2.5 fold
5T33MMvv mouse; 25 mg/kg
  microvessel density (MVD) in the bone marrow vs vehicle-treated mice: 20 % decrease
  paraprotein secretion vs vehicle-treated mice: 77 % decrease
  multiple myeloma cell apoptosis vs vehicle-treated mice: 2.1 fold
5T33MMvv mouse; 50 mg/kg
  microvessel density (MVD) in the bone marrow vs vehicle-treated mice: 26 % decrease
  paraprotein secretion vs vehicle-treated mice: 54 % decrease
  multiple myeloma cell apoptosis vs vehicle-treated mice: 3.1 fold
Naive mice
  toxicity in terms of body weight, HGB, RBC, WBC, HCT and MVD: no substantial toxicity
[1]
  anti-apoptotic Mcl-1: decreased
  expression of anti-apoptotic Bcl-2 and Bcl-xL: decreased
  pro-apoptotic BH-3 member Noxa and cleavage of BID: induced
AML; one AML patient started at 120 mg/m^2/day
  platelet count: gradually improving
AML; one AML patient started at 120 mg/m^2/day, after each cycle
  peripheral blast count: decreased
AML; one AML patient, 240 mg/m^2/day, after cycle 1
  disease response: stable disease
AML; two AML patients, 120 mg/m^2/day, iv daily for 5 days of 21 day cycle
  disease response: stable disease
ALL; 170 mg/m^2/day, bone marrow biopsy after cycle 1
  disease response: partial response
ALL; 240 mg/m^2/day, after cycle 1
  disease response: stable disease
ALL; 330 mg/m^2/day, after cycle 1
  disease response: stable disease
